Laboratory results: patent publication US9333188B2, “Composition and method for improving survival of bee colonies” (Science in Water B.V., priority 2012, dated 2016)

System: bees
Assay: Beekeeper field trial: winter survival of bee hives after feeding
Type: in vivo
Conditions: populations given only iron(II) fumarate
Experimental: In a trial, a number or beekeepers (16) used a solution of vinasse containing dissolved iron(II) fumarate with the goal of reducing instances of winter mortality and CCD. This solution was mixed with 100-200 ml of sugar syrup. The solution thus obtained was administered to bees with their feed. The quantities and results were as follows: A total of approximately 1,000 mg of iron(II) fumarate, or 333 mg Fe (i.e. 5.8 millimoles iron(II)) was administered per 5 kg of bees. This quantity was administered in small portions. The initial moments of the series administrations ranged from 5 August 2011 to 15 September 2011. The administration frequencies ranged from one time per week to one time per 3 days. If administration was started late in the season, administration was one time per 3 days to ensure that a consistent total amount of iron(II) fumarate was administered across the test populations. […] In a control populations given only pure vinasse the queens were dead within 14 days; these populations were then not viable and after the death of the queen, remaining bees in the population were merged with another population. In one case, the total amount of iron(II) fumarate and vinasse was added to 15 kg of sugar syrup. This emulsion was administered as a winter sugar, until the mixture was consumed. […]

SMILES: O=C([O-])/C=C/C(=O)[O-].[Fe+2] [iron(II) fumarate]
- winter survival of control populations: survived the winter, but in a very weak state
